Reference: US20140079784A1, “AEROSOLIZED LFA-1 ANTAGONISTS FOR USE IN LOCALIZED TREATMENT OF IMMUNE RELATED DISORDERS” (SARCODE BIOSCIENCE INC., priority 2008, published 2014)
Read-outs that look alike come from different tables or passages of the source.

Key:
LFA-1 = molecular target: T1, LFA-1 (Homo sapiens, UniProt P20701); conditions: >90% occupancy of LFA-1; cited from earlier work
T1 construct: >90% occupancy of LFA-1 with efalizumab led to a greater than 50% clinical improvement in PASI score in a clinical trial; host or cells: leukocytes of psoriasis patients (in vivo)
T1 sequence (P20701 26-1170): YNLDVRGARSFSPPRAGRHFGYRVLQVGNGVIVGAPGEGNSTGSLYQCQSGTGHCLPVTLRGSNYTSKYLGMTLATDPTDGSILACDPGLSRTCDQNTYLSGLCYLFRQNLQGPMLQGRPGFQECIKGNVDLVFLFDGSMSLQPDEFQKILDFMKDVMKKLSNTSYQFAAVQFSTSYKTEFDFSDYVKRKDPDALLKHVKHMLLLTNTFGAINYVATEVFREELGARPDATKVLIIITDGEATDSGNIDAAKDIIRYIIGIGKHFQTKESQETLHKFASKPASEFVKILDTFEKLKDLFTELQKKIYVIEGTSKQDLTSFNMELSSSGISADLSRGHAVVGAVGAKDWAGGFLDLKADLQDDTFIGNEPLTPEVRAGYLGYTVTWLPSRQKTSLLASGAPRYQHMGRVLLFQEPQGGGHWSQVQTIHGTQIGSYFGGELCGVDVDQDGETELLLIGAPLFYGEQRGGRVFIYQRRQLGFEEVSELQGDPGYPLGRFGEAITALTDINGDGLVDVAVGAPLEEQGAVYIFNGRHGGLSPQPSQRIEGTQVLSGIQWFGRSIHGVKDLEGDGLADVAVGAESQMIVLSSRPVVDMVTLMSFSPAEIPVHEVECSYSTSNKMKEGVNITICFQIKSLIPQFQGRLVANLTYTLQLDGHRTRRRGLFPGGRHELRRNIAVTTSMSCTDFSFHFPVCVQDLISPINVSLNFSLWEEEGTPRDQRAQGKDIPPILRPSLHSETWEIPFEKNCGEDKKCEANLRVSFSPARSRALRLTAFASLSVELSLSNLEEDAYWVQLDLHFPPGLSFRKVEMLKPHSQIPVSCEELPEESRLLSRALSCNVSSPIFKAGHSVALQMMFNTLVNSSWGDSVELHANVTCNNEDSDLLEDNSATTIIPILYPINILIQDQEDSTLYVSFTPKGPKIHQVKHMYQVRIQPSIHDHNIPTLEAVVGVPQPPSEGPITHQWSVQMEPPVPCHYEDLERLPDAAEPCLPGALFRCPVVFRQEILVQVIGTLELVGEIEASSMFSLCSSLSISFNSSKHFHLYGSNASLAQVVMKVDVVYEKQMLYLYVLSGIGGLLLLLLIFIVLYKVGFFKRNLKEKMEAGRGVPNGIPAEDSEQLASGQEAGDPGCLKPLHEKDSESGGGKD
T1 sequence (P05107 23-769 partner): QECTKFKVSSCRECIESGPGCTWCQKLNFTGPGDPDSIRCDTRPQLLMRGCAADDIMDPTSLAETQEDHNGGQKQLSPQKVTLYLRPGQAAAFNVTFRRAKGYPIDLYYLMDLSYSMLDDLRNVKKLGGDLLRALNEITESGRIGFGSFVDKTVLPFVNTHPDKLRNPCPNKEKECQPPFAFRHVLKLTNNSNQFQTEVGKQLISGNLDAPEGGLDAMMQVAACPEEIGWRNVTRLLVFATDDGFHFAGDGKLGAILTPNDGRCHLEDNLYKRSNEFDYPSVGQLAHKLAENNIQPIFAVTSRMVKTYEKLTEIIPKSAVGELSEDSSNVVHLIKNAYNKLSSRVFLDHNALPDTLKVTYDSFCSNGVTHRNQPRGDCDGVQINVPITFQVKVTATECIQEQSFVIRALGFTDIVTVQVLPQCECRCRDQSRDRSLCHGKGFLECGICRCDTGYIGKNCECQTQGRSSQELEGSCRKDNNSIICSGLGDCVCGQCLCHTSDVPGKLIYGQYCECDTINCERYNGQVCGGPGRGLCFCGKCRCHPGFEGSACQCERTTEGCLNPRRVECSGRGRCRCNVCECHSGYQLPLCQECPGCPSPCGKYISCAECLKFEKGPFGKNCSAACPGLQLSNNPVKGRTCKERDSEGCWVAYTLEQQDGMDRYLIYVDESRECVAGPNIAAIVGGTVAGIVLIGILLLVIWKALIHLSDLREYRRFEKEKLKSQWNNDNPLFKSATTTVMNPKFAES

[1] = system: human mononuclear cells (PBMC) stimulated with staphylococcal enterotoxin B (SEB); test: cells; format: cell-based

Row | Molecule | clinical improvement in PASI score (LFA-1) | EC50 ([1]; read-out: EC50 Cytokine Release GM-CSF) [µM] | EC50 ([1]; read-out: EC50 Cytokine Release IFNγ) [µM] | EC50 ([1]; read-out: EC50 Cytokine Release IL-1α) [µM] | EC50 ([1]; read-out: EC50 Cytokine Release IL-1β) [µM] | EC50 ([1]; read-out: EC50 Cytokine Release IL-2) [µM] | EC50 ([1]; read-out: EC50 Cytokine Release IL-3) [µM] | EC50 ([1]; read-out: EC50 Cytokine Release IL-4) [µM] | EC50 ([1]; read-out: EC50 Cytokine Release IL-5) [µM] | EC50 ([1]; read-out: EC50 Cytokine Release IL-6) [µM] | EC50 ([1]; read-out: EC50 Cytokine Release IL-10) [µM] | EC50 ([1]; read-out: EC50 Cytokine Release IL-12p40) [µM] | EC50 ([1]; read-out: EC50 Cytokine Release IL-13) [µM] | EC50 ([1]; read-out: EC50 Cytokine Release IP-10) [µM] | EC50 ([1]; read-out: EC50 Cytokine Release MCP-1) [µM] | EC50 ([1]; read-out: EC50 Cytokine Release MIP-1α) [µM] | EC50 ([1]; read-out: EC50 Cytokine Release TNF-α) [µM]
1 | efalizumab: anti-LFA-1 (CD11a) antibody evaluated in plaque psoriasis | greater than 50% |  |  |  |  |  |  |  |  |  |  |  |  |  |  |  | 
2 | O=C(NC(Cc1cc(=O)[nH]c2ccccc12)C(=O)O)c1ccc(Cl)cc1 (centres unmarked) [Rebamipide] |  | > 1000 | > 1000 | > 1000 | > 1000 | > 1000 | > 1000 | > 1000 | > 1000 | > 1000 | > 1000 | > 1000 | > 1000 | > 1000 | > 1000 | > 1000 | > 1000
